This is an account of results in US8436178B2, “Imidazoquinolines with immuno-modulating properties” (AstraZeneca AB, priority 2007, dated 2013).

Structures can show the parent of a compound that is named as a salt.

The assay addresses T1, human TLR7 (Homo sapiens, UniProt Q9NYK1).
T1 construct: expressed in transfected cells; host or cells: HEK293 cell line stably expressing the pNiFty2-SEAP reporter plasmid; TLR7 in pUNO vector, blasticidin selection
T1 sequence (Q9NYK1 27-1049): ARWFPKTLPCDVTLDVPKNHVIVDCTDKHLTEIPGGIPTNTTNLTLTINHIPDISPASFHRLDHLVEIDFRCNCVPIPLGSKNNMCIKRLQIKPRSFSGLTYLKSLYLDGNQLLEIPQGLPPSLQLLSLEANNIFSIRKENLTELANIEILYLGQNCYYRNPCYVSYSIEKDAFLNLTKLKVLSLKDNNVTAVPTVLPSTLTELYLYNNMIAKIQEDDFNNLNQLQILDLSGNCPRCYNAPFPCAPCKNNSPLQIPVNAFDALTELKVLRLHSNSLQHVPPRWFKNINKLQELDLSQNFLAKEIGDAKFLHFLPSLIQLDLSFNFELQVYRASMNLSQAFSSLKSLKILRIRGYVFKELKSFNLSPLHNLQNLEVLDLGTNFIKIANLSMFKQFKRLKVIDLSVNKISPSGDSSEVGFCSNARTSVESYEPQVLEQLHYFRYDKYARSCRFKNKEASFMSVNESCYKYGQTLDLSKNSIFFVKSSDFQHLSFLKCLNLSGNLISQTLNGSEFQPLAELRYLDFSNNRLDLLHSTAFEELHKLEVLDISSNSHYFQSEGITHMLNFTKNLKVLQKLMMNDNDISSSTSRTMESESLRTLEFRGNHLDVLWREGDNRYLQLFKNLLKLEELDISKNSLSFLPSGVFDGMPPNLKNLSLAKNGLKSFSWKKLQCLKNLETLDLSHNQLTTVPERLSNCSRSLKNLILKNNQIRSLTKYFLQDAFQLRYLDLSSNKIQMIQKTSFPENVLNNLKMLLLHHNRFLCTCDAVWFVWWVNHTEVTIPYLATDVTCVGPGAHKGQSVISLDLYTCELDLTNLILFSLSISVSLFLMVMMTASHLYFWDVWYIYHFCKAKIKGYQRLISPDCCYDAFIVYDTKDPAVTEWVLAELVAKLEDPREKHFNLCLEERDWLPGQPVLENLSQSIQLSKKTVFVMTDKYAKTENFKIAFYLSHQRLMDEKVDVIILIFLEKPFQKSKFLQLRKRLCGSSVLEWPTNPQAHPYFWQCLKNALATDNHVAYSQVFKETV
The experiment in a line: Human TLR7 assay (SEAP reporter in HEK293 cells). The format is cell-based. The settings on record: SEAP induction in HEK293 cells expressing human TLR7, overnight incubation at 37° C., 0.1% DMSO.
In the case of `CCCCc1nc2c(N)nc3ccccc3c2n1CCCN(Cc1ccc(CC(=O)OC)cc1)C1CCN(C)CC1` [Example 9, Methyl 2-(4-(((3-(4-amino-2-butyl-1H-imidazo[4,5-c]quinolin-1-yl)propyl)(1-methylpiperidin-4-yl)amino)methyl)phenyl)acetate], a half-maximal response (EC50) required 631 nM. Take `CCCCc1nc2c(N)nc3ccccc3c2n1CCCN(Cc1cccc(CC(=O)OC)c1)C(=O)CN(CCC)CCC` [Example 41]: the EC50 is 79.4 nM. As for `CCCCc1nc2c(N)nc3ccccc3c2n1CCCN(Cc1ccc(CC(=O)OC)cc1)C(=O)CN1CCN(CCOC)CC1` [Example 66, Methyl 2-(4-((N-(3-(4-amino-2-butyl-1H-imidazo[4,5-c]quinolin-1-yl)propyl)-2-(4-(2-methoxyethyl)piperazin-1-yl)acetamido)methyl)phenyl)acetate], the EC50 was 158 nM. `CCCCc1nc2c(N)nc3ccccc3c2n1CCCN(Cc1cccc(CC(=O)OC)c1)C(=O)CN1CCCN(C(C)=O)CC1` [Example 63, Methyl 2-(3-((2-(4-acetyl-1,4-diazepan-1-yl)-N-(3-(4-amino-2-butyl-1H-imidazo[4,5-c]quinolin-1-yl)propyl)acetamido)methyl)phenyl)acetate] gave a 50% effective concentration (EC50) of 501 nM. Next, `CCCCc1nc2c(N)nc3ccccc3c2n1CCCN(Cc1ccc(CC(=O)OC)cc1)C(=O)CN1CCN(C(C)=O)CC1` [Example 19, Methyl 2-(4-((2-(4-acetylpiperazin-1-yl)-N-(3-(4-amino-2-butyl-1H-imidazo[4,5-c]quinolin-1-yl)propyl)acetamido)methyl)phenyl)acetate]: 251 nM; `CCCCc1nc2c(N)nc3ccccc3c2n1CCCN(Cc1ccc(CC(=O)OC)cc1)C(=O)CS(C)(=O)=O` [Example 15, Methyl 2-(4-((N-(3-(4-amino-2-butyl-1H-imidazo[4,5-c]quinolin-1-yl)propyl)-2-(methylsulfonyl)acetamido)methyl)phenyl)acetate]: 398 nM; `CCCCc1nc2c(N)nc3ccccc3c2n1CCCN(Cc1cccc(CC(=O)OC)c1)C(=O)CN1CCCOCC1` [Example 61, Methyl 2-(3-((N-(3-(4-amino-2-butyl-1H-imidazo[4,5-c]quinolin-1-yl)propyl)-2-(1,4-oxazepan-4-yl)acetamido)methyl)phenyl)acetate]: 398 nM. `CCCCc1nc2c(N)nc3ccccc3c2n1CCCN(Cc1cccc(CC(=O)OC)c1)C(=O)CN1CCCCCC1` [Example 60, Methyl 2-(3-((N-(3-(4-amino-2-butyl-1H-imidazo[4,5-c]quinolin-1-yl)propyl)-2-(azepan-1-yl)acetamido)methyl)phenyl)acetate] had a concentration giving a half-maximal response (EC50) of 79.4 nM. Next, `CCCCc1nc2c(N)nc3ccccc3c2n1CCCN(Cc1ccc(CC(=O)OC)cc1)C(=O)CN1CCOCC1` [Example 17, Methyl 2-(4-((N-(3-(4-amino-2-butyl-1H-imidazo[4,5-c]quinolin-1-yl)propyl)-2-morpholinoacetamido)methyl)phenyl)acetate]: 158 nM; `COCCc1nc2c(N)nc3ccccc3c2n1CCCN(Cc1ccc(CC(=O)OC)cc1)C(=O)CN(C)C` [Example 30, Methyl 2-(4-((N-(3-(4-amino-2-(2-methoxyethyl)-1H-imidazo[4,5-c]quinolin-1-yl)propyl)-2-(dimethylamino)acetamido)methyl)phenyl)acetate]: 200 nM; `CCCCc1nc2c(N)nc3ccccc3c2n1CCCN(CCN(C)C)Cc1ccc(CC(=O)OC)cc1` [Example 6, Methyl[4-({[3-(4-amino-2-butyl-1H-imidazo[4,5-c]quinolin-1-yl)propyl][2-(dimethylamino)ethyl]amino}methyl)phenyl]acetate]: 251 nM. Next, `CCCCc1nc2c(N)nc3ccccc3c2n1CCCN(Cc1cccc(CC(=O)OC)c1)C(=O)CN1CC[C@@H](O)C1` [Example 48, (R)-Methyl 2-(3-((N-(3-(4-amino-2-butyl-1H-imidazo[4,5-c]quinolin-1-yl)propyl)-2-(3-hydroxypyrrolidin-1-yl)acetamido)methyl)phenyl)acetate]: 398 nM; `CCCCc1nc2c(N)nc3ccccc3c2n1CCCN(Cc1cccc(CC(=O)OC)c1)C(=O)CN(C)C` [Example 4, Methyl 2-(3-((N-(3-(4-amino-2-butyl-1H-imidazo[4,5-c]quinolin-1-yl)propyl)-2-(dimethylamino)acetamido)methyl)phenyl)acetate]: 39.8 nM. With `CCCCc1nc2c(N)nc3ccccc3c2n1CCCN(Cc1cccc(CC(=O)OC)c1)C(=O)CN1CC(O)C1` [Example 45, Methyl 2-(3-((N-(3-(4-amino-2-butyl-1H-imidazo[4,5-c]quinolin-1-yl)propyl)-2-(3-hydroxyazetidin-1-yl)acetamido)methyl)phenyl)acetate], the EC50 is 1580 nM. Regarding `CCCCc1nc2c(N)nc3ccccc3c2n1CCCNCc1ccc(CC(=O)OC)cc1` [Example 1, Methyl 2-(4-((3-(4-amino-2-butyl-1H-imidazo[4,5-c]quinolin-1-yl)propylamino)methyl)phenyl)acetate], the EC50 was 316 nM. For `CCCCc1nc2c(N)nc3ccccc3c2n1CCCN(Cc1cccc(CC(=O)OC)c1)C(=O)CN1CCC(C(=O)N(C)C)CC1` [Example 52, Methyl 2-(3-((N-(3-(4-amino-2-butyl-1H-imidazo[4,5-c]quinolin-1-yl)propyl)-2-(4-(dimethylcarbamoyl)piperidin-1-yl)acetamido)methyl)phenyl)acetate], the EC50 was 631 nM.

Consider `CCCCc1nc2c(N)nc3ccccc3c2n1CCCN(Cc1cccc(CC(=O)OC)c1)C(=O)CN1CCCC1` [Example 46, Methyl 2-(3-((N-(3-(4-amino-2-butyl-1H-imidazo[4,5-c]quinolin-1-yl)propyl)-2-(pyrrolidin-1-yl)acetamido)methyl)phenyl)acetate], for which the EC50 was 63.1 nM. Next, `CCCCc1nc2c(N)nc3ccccc3c2n1CCCN(Cc1ccc(CC(=O)OC)cc1)C(C)=O` [Example 16, Methyl 2-(4-((N-(3-(4-amino-2-butyl-1H-imidazo[4,5-c]quinolin-1-yl)propyl)acetamido)methyl)phenyl)acetate]: 126 nM.

`CCCCc1nc2c(N)nc3ccccc3c2n1CCCN(CCCN1CCOCC1)Cc1cccc(CC(=O)OC)c1` [Example 12, Methyl 2-(3-(((3-(4-amino-2-butyl-1H-imidazo[4,5-c]quinolin-1-yl)propyl)(3-morpholinopropyl)amino)methyl)phenyl)acetate]: the EC50 is 251 nM. Take `COCCc1nc2c(N)nc3ccccc3c2n1CCCN(Cc1ccc(CC(=O)OC)cc1)C(=O)CN(C)CCO` [Example 38, Methyl 2-(4-((N-(3-(4-amino-2-(2-methoxyethyl)-1H-imidazo[4,5-c]quinolin-1-yl)propyl)-2-((2-hydroxyethyl)(methyl)amino)acetamido)methyl)phenyl)acetate disaccharin salt]: the EC50 is 1580 nM. Compound `CCOCc1nc2c(N)nc3ccccc3c2n1CC1CCN(Cc2cccc(CC(=O)OC)c2)CC1` [Example 5, di-trifluoroacetate salt] had an EC50 of 316 nM. `CCCCc1nc2c(N)nc3ccccc3c2n1CCCN(Cc1ccc(CC(=O)OC)cc1)C(=O)CN(C)CCOC` [Example 18] had an EC50 of 63.1 nM. In the case of `COCCc1nc2c(N)nc3ccccc3c2n1CCCN(Cc1ccc(CC(=O)OC)cc1)C(=O)CN1CCCC1` [Example 37, Methyl 2-(4-((N-(3-(4-amino-2-(2-methoxyethyl)-1H-imidazo[4,5-c]quinolin-1-yl)propyl)-2-(pyrrolidin-1-yl)acetamido)methyl)phenyl)acetate disaccharin salt], the EC50 is 398 nM. Compound `COCCc1nc2c(N)nc3ccccc3c2n1CCCN(Cc1ccc(CC(=O)OC)cc1)C(=O)CCN1CCCCC1` [Example 33, Methyl 2-(4-((N-(3-(4-amino-2-(2-methoxyethyl)-1H-imidazo[4,5-c]quinolin-1-yl)propyl)-3-(piperidin-1-yl)propanamido)methyl)phenyl)acetate] had a concentration for a half-maximal effect (EC50) of 158 nM. Turning to `CCCCc1nc2c(N)nc3ccccc3c2n1CCCN(CCCN(C)CC)Cc1cccc(CC(=O)OC)c1` [Example 13, Methyl 2-(3-(((3-(4-amino-2-butyl-1H-imidazo[4,5-c]quinolin-1-yl)propyl)(3-(ethyl(methyl)amino)propyl)amino)methyl)phenyl)acetate], the 50% effective concentration (EC50) was 158 nM.
